Assay results: PubChem BioAssay (NCI)
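Each compound was tested at five concentrations against cells in 96-well plates for 48 hours. The concentration for 50% growth inhibition is given as GI50. TGI marks complete inhibition of growth.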

What was measured:
Experiment in all cases: inhibition of tumour cell growth, NCI panel, 48 h
[1] = system: MOLT-4 leukemia
[2] = system: BT-549 breast
[3] = system: RXF 393 renal
[4] = system: COLO 205 colon
[5] = system: EKVX NSCLC
[6] = system: MDA-MB-231 breast
[7] = system: 786-0 renal
[8] = system: U251 CNS
[9] = system: HCT-116 colon
[10] = system: LOX IMVI melanoma
[11] = system: MDA-MB-468 breast
[12] = system: MALME-3M melanoma
[13] = system: SK-MEL-2 melanoma
[14] = system: KM12 colon
[15] = system: TK-10 renal
[16] = system: MCF7 breast
[17] = system: SF-295 CNS
[18] = system: DU-145 prostate
[19] = system: OVCAR-4 ovarian
[20] = system: K-562 leukemia
[21] = system: NCI-H23 lung
[22] = system: SW-620 colon
[23] = system: SR leukemia
[24] = system: A498 renal
[25] = system: OVCAR-3 ovarian
[26] = system: UACC-62 melanoma
[27] = system: SN12C renal
[28] = system: RPMI-8226 leukemia
[29] = system: OVCAR-5 ovarian
[30] = system: M14 melanoma

With `O=C(c1ccccc1)c1ccc2nc(-c3ccccc3Br)[nH]c2c1` the GI50 [1] was 2.21 µM, the TGI [1] was 11.5 µM and the GI50 [2] was 1.53 µM. For the same molecule, the TGI [2] was 3.15 µM, the GI50 [3] was 1.61 µM and the TGI [3] was 3.82 µM. The GI50 [4] was 2.04 µM, the TGI [4] was 3.94 µM and the GI50 [5] was 2.11 µM. For the same molecule, the TGI [5] was 4.92 µM, the GI50 [6] was 4.84 µM and the TGI [6] was 19.5 µM. For the same molecule, the GI50 [7] was 2.37 µM, the TGI [7] was 4.77 µM and the GI50 [8] was 2 µM. For the same molecule, the TGI [8] was 4.59 µM, the GI50 [9] was 2.31 µM and the TGI [9] was 8.15 µM. It also gave a GI50 [10] of 2.45 µM, a TGI [10] of 10.4 µM and a GI50 [11] of 1.73 µM. It also gave a TGI [11] of 3.9 µM, a GI50 [12] of 2.11 µM and a TGI [12] of 6.35 µM. It also gave a GI50 [13] of 2.01 µM, a TGI [13] of 4.92 µM and a GI50 [14] of 4.64 µM. It also gave a TGI [14] of 18.5 µM, a GI50 [15] of 8.18 µM and a TGI [15] of 21.3 µM. The GI50 [16] was 2.15 µM, the TGI [16] was 7.67 µM and the GI50 [17] was 5.54 µM. It also gave a TGI [17] of 18.2 µM, a GI50 [18] of 4.33 µM and a TGI [18] of 15.4 µM. The GI50 [19] was 3.72 µM, the TGI [19] was 13.7 µM and the GI50 [20] was 2.77 µM. It also gave a TGI [20] of over 100 µM, a GI50 [21] of 2.08 µM and a TGI [21] of 6.5 µM. It also gave a GI50 [22] of 3.33 µM, a TGI [22] of 13.2 µM and a GI50 [23] of 2.51 µM. The TGI [23] was 12.7 µM, the GI50 [24] was 17.3 µM and the TGI [24] was 33 µM. The GI50 [25] was 2.94 µM, the TGI [25] was 10.4 µM and the GI50 [26] was 3.57 µM. It also gave a TGI [26] of 16.4 µM, a GI50 [27] of 2.4 µM and a TGI [27] of 6.5 µM. For the same molecule, the GI50 [28] was 2.65 µM, the TGI [28] was 11.8 µM and the GI50 [29] was 2.48 µM. It also gave a TGI [29] of 5.7 µM and a GI50 [30] of 1.77 µM.
